From patent publication US10821115B2, “Compounds that inhibit Mcl-1 protein” (priority 2017, dated 2020)
Read-outs that look alike come from different tables or passages of the source.

Legend:
[1] = test system: human multiple myeloma cell line, OPM-2; assay: Cell viability assay (OPM-2 10 FBS), CellTiter-Glo; type: cell-based
Summary of the method: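 Serially diluted test compounds are incubated 16 h with cells (3000/well) in RPMI 1640 supplemented with 10% FBS. Viability is then measured by luminescence and IC50 calculated by 4-parameter logistic fit.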

[2] = molecular target: recombinant human Mcl-1 (residues 171-327) / Bim interaction (Homo sapiens (Human), UniProt Q07820); assay: biochemical; type: binding; details: read-out: Mcl-1 HTRF IC50
Chain of recombinant human Mcl-1 (residues 171-327) / Bim interaction (Q07820 171-327): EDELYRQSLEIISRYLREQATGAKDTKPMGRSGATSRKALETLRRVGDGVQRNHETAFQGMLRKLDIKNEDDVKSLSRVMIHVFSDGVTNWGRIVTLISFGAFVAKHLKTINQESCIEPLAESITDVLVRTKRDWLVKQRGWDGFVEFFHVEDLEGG

[3] = Homo sapiens, OPM-2, 16 h, read-out: OPM-2 10% FBS IC50 IP, OPM-2 cells, 10% FBS, 16 h, CellTiter-Glo
[4] = TR-FRET, Mcl-1(171-327) / biotin-Bim (51-76)
[5] = Homo sapiens, OPM-2, 16 h, read-out: OPM-2 10% FBS IC50 IP, OPM-2 cells, 10% FBS, 16 h incubation
[6] = 0.1 nM Mcl-1(171-327), 0.05 nM biotin-Bim (51-76)
[7] = read-out: OPM-2 10% FBS IC50 IP, OPM-2 cells, 10% FBS, 16 h, CellTiter-Glo

Row | SMILES | IC50 [1, 3] [nM] | IC50 [2, 4] [nM] | other results
1 | CC(=O)N[C@@]1(CN2CCOCC2)CCC[C@H](C)[C@@H](C)S(=O)(=O)NC(=O)c2ccc3c(c2)N(C[C@@H]2CC[C@H]21)C[C@@]1(CCCc2cc(Cl)ccc21)CO3 [Example 100272, N-((1S,3′R,6′R,7′S,11′S,12′R)-6-chloro-11′,12′-dimethyl-7′-(4-morpholinylmethyl)-13′,13′-dioxido-15′-oxo-3,4-dihydro-2H-spiro[naphthalene-1,22′-[20]oxa[13]thia[1,14]diazatetracyclo [14.7.2.0~3,6~.0~19,24~]pentacosa[16,18,24]trien]-7′-yl)acetamide] | 349 | 0.401 | –
2 | COCc1nc(C[C@]2(OC)/C=C/C[C@H](C)[C@@H](C)S(=O)(=O)NC(=O)c3ccc4c(c3)N(C[C@@H]3CC[C@H]32)C[C@@]2(CCCc3cc(Cl)ccc32)CO4)oc1C [Example 100585, (1S,3′R,6′R,7′S,8′E,11′S,12′R)-6-chloro-7′-methoxy-7′-((4-(methoxymethyl)-5-methyl-1,3-oxazol-2-yl)methyl)-11′,12′-dimethyl-3,4-dihydro-2H,15′H-spiro[naphthalene-1,22′-[20]oxa[13]thia[1,14]diazatetracyclo [14.7.2.0~3,6~.0~19,24~]pentacosa[8,16,18,24]tetraen]-15′-one 13′,13′-dioxide] | 696 | 0.057 | –
3 | COCCN1CCN(C[C@]2(OC)/C=C/C[C@H](C)[C@@H](C)S(=O)(=O)NC(=O)c3ccc4c(c3)N(C[C@@H]3CC[C@H]32)C[C@@]2(CCCc3cc(Cl)ccc32)CO4)CC1(C)C [Example 334, (1S,3′R,6′R,7′S,8′E,11′S,12′R)-6-chloro-7′-methoxy-7′-((4-(2-methoxyethyl)-3,3-dimethyl-1-piperazinyl)methyl)-11′,12′-dimethyl-3,4-dihydro-2H,15′H-spiro[naphthalene-1,22′-[20]oxa[13]thia[1,14]diazatetracyclo [14.7.2.0~3,6~.0~19,24~]pentacosa[8,16,18,24]tetraen]-15′-one 13′,13′-dioxide] | – | – | IC50 [1, 5]: 159 nM; IC50 [2, 6]: 0.186 nM
4 | CO[C@@]1(CC2=NCC(=O)O2)/C=C/C[C@H](C)[C@@H](C)S(=O)(=O)NC(=O)c2ccc3c(c2)N(C[C@@H]2CC[C@H]21)C[C@@]1(CCCc2cc(Cl)ccc21)CO3 [Example 100549, (1S,3′R,6′R,7′S,8′E,11′S,12′R)-6-chloro-7′-methoxy-11′,12′-dimethyl-7′-((5-oxo-4,5-dihydro-1,3-oxazol-2-yl)methyl)-3,4-dihydro-2H,15′H-spiro[naphthalene-1,22′-[20]oxa[13]thia[1,14]diazatetracyclo [14.7.2.0~3,6~.0~19,24~]pentacosa[8,16,18,24]tetraen]-15′-one 13′,13′-dioxide] | 545 | 2.57 | –
5 | CC[C@@H]1CCCC[C@@]2(COCC(=O)O2)[C@@H]2CC[C@H]2CN2C[C@@]3(CCCc4cc(Cl)ccc43)COc3ccc(cc32)C(=O)NS1(=O)=O [Example 100043, (2S,3′R,6′R,12′R,22′S)-6″-chloro-12′-ethyl-3″,4″-dihydro-2″H,6H,15′H-dispiro[1,4-dioxane-2,7′-[20]oxa[13]thia[1,14]diazatetracyclo [14.7.2.0~3,6~.0~19,24~]pentacosa[16,18,24]triene-22′,1″-naphthalene]-6,15′-dione 13′,13′-dioxide] | 7280 | 1.67 | –
6 | CO[C@@]1([C@H](C)O)/C=C/C[C@H](C)[C@@H](C)S(=O)(=O)NC(=O)c2ccc3c(c2)N(C[C@@H]2CC[C@H]21)C[C@@]1(CCCc2cc(Cl)ccc21)CO3 (single isomer, unassigned) [Example 100486] | 102 | 0.381 | –
7 | CO[C@@]1(Cc2ncc(C)o2)/C=C/C[C@H](C)[C@@H](C)S(=O)(=O)NC(=O)c2ccc3c(c2)N(C[C@@H]2CC[C@H]21)C[C@@]1(CCCc2cc(Cl)ccc21)CO3 [Example 100529, (1S,3′R,6′R,7′S,8′E,11′S,12′R)-6-chloro-7′-methoxy-11′,12′-dimethyl-7′-((5-methyl-1,3-oxazol-2-yl)methyl)-3,4-dihydro-2H,15′H-spiro[naphthalene-1,22′-[20]oxa[13]thia[1,14]diazatetracyclo [14.7.2.0~3,6~.0~19,24~]pentacosa[8,16,18,24]tetraen]-15′-one 13′,13′-dioxide] | 245 | 0.287 | –
8 | CCO[C@@]1(CN2CCN3CCCC[C@@H]3C2)/C=C/CC[C@@H](CC)S(=O)(=O)NC(=O)c2ccc3c(c2)N(C[C@@H]2CC[C@H]21)C[C@@]1(CCCc2cc(Cl)ccc21)CO3 [Example 43, (1S,3′R,6′R,7′S,8′E,12′R)-6-chloro-7′-ethoxy-12′-ethyl-7′-((9aR)-octahydro-2H-pyrido[1,2-a]pyrazin-2-ylmethyl)-3,4-dihydro-2H,15′H-spiro[naphthalene-1,22′-[20]oxa[13]thia[1,14]diazatetracyclo [14.7.2.0~3,6~.0~19,24~]pentacosa[8,16,18,24]tetraen]-15′-one 13′,13′-dioxide] | – | – | IC50 [1, 5]: 888 nM; IC50 [2, 6]: 1.64 nM
9 | C[C@@H]1[C@@H](C)C/C=C/[C@@](O)(C#CCCN2CCOCC2)[C@@H]2CC[C@H]2CN2C[C@@]3(CCCc4cc(Cl)ccc43)COc3ccc(cc32)C(=O)NS1(=O)=O (single isomer, unassigned) [Example 100017] | – | 0.039 | IC50 [1, 7]: 40 nM
10 | CCO[C@]1(CN2CCN3CCS(=O)(=O)C[C@@H]3C2)/C=C/C[C@H](C)[C@@H](C)S(=O)(=O)NC(=O)c2ccc3c(c2)N(C[C@@H]2CC[C@H]21)C[C@@]1(CCCc2cc(Cl)ccc21)CO3 [Example 122] | – | – | IC50 ([1]; read-out: OPM-2 10% FBS IC50 IP, OPM-2 cells, 10% FBS, 16 h incubation): 138 nM; IC50 [2, 6]: 0.087 nM
11 | C[C@@H]1[C@@H](C)C/C=C/[C@@](O)([C@@H]2CCN(C)C2=O)[C@@H]2CC[C@H]2CN2C[C@@]3(CCCc4cc(Cl)ccc43)COc3ccc(cc32)C(=O)NS1(=O)=O [Example 100109, (1S,3′R,6′R,7′S,8′E,11′S,12′R)-6-chloro-7′-hydroxy-11′,12′-dimethyl-7′-((3S)-1-methyl-2-oxo-3-pyrrolidinyl)-3,4-dihydro-2H,15′H-spiro[naphthalene-1,22′-[20]oxa[13]thia[1,14]diazatetracyclo [14.7.2.0~3,6~.0~19,24~]pentacosa[8,16,18,24]tetraen]-15′-one 13′,13′-dioxide] | – | 0.486 | IC50 [1, 7]: 2140 nM
12 | CO[C@@]1(CC(=O)N(C)CCN2CCOCC2)/C=C/C[C@H](C)[C@@H](C)S(=O)(=O)NC(=O)c2ccc3c(c2)N(C[C@@H]2CC[C@H]21)C[C@@]1(CCCc2cc(Cl)ccc21)CO3 [Example 100377, 2-((1S,3′R,6′R,7′S,8′E,11′S,12′R)-6-chloro-7′-methoxy-11′,12′-dimethyl-13′,13′-dioxido-15′-oxo-3,4-dihydro-2H-spiro[naphthalene-1,22′-[20]oxa[13]thia[1,14]diazatetracyclo [14.7.2.0~3,6~.0~19,24~]pentacosa[8,16,18,24]tetraen]-7′-yl)-N-methyl-N-(2-(4-morpholinyl)ethyl)acetamide] | 182 | 0.107 | –
13 | COC(=O)C[C@@]1(O)/C=C/C[C@H](C)[C@@H](C)S(=O)(=O)NC(=O)c2ccc3c(c2)N(C[C@@H]2CC[C@H]21)C[C@@]1(CCCc2cc(Cl)ccc21)CO3 [Example 100287, methyl ((1S,3′R,6′R,7′R,8′E,11′S,12′R)-6-chloro-7′-hydroxy-11′,12′-dimethyl-13′,13′-dioxido-15′-oxo-3,4-dihydro-2H-spiro[naphthalene-1,22′-[20]oxa[13]thia[1,14]diazatetracyclo [14.7.2.0~3,6~.0~19,24~]pentacosa[8,16,18,24]tetraen]-7′-yl)acetate] | 1870 | 0.494 | –
14 | C[C@@H]1[C@@H](C)C/C=C/[C@@](O)(C[S@@+](C)[O-])[C@@H]2CC[C@H]2CN2C[C@@]3(CCCc4cc(Cl)ccc43)COc3ccc(cc32)C(=O)NS1(=O)=O (stereo in doubt) [Example 100075] | – | 0.671 | IC50 [1, 7]: 1820 nM
15 | CCO[C@]1(CN2CCN3CCOC[C@@H]3C2)/C=C/C[C@H](C)[C@@H](CC2CCC2)S(=O)(=O)NC(=O)c2ccc3c(c2)N(C[C@@H]2CC[C@H]21)C[C@@]1(CCCc2cc(Cl)ccc21)CO3 [Example 45, (1S,3′R,6′R,7′R,8′E,11′S,12′R)-6-chloro-12′-(cyclobutylmethyl)-7′-ethoxy-7′-((9aS)-hexahydropyrazino[2,1-c][1,4]oxazin-8(1H)-ylmethyl)-11′-methyl-3,4-dihydro-2H,15′H-spiro[naphthalene-1,22′-[20]oxa[13]thia[1,14]diazatetracyclo [14.7.2.0~3,6~.0~19,24~]pentacosa[8,16,18,24]tetraen]-15′-one 13′,13′-dioxide] | – | – | IC50 [1, 5]: 891 nM; IC50 [2, 6]: 0.245 nM
16 | C[C@@H]1[C@@H](C)C/C=C/[C@](O)(C(C)(C)C#N)[C@@H]2CC[C@H]2CN2C[C@@]3(CCCc4cc(Cl)ccc43)COc3ccc(cc32)C(=O)NS1(=O)=O [Example 100059, 2-((1S,3′R,6′R,7′R,8′E,11′S,12′R)-6-chloro-7′-hydroxy-11′,12′-dimethyl-13′,13′-dioxido-15′-oxo-3,4-dihydro-2H-spiro[naphthalene-1,22′-[20]oxa[13]thia[1,14]diazatetracyclo [14.7.2.0~3,6~.0~19,24~]pentacosa[8,16,18,24]tetraen]-7′-yl)-2-methylpropanenitrile] | 3450 | 11.9 | –
